Experimental data: patent US20160143913A1, “COMBINATION” (Novartis AG, priority 2009, published 2016)

Assays:
[1] = test system: MDA-MB-175-VII; assay: Cell growth inhibition assay (Cell Titer Glo), MDA-MB-175-VII; format: cell-based, Human
Source text: (§1) Human breast tumor line, MDA-MB-175-VII, human colon tumor lines, Colo-205, DLD-1, HCT-8, HT-29, LS-1034, NCI-H508, RKO, SW1417, SW1463, SW480, SW837 and T84, and human lung tumor lines, A427, A549, Calu 3, Calu 6, HCC827, NCI-H1155, NCI-H1355, NCI-H1792, NCI-H23, NCI-H727, SW1573 and SW900 were from ATCC. Human breast tumor line EFM-19 was from German Collection of Microorganisms and Cell Cultures. Human lung tumor line COR-L23 was from European Collection of Cell Cultures (UK). Human colon tumor line KM12 and human lung tumor line Hop62 were from National Cancer Institute. MV522 was from University of California at San Diego. All lines were cultured in RPMI 1640 medium containing 10% fetal bovine serum (FBS).
(§2) All cells were cultured for a minimum of 72 hours prior to cell plating. Cells were assayed in a 96-well tissue culture plate (NUNC 136102) of RPMI medium containing 10% FBS for all cells at 1,000 cells per well. […] ATP levels were determined by adding Cell Titer Glo® (Promega) according to the manufacturer's protocol. Briefly, Cell Titer Glo® was added each plate, incubated for 30 minutes then luminescent signal was read on the SpectraMax L plate reader with a 0.5 sec integration time.
(§3) Inhibition of cell growth was estimated after treatment with compound or combination of compounds for three days and comparing the signal to cells treated with vehicle (DMSO). Cell growth was calculated relative to vehicle (DMSO) treated control wells. […]
Combination effects on potency were evaluated using Combination Index (CI) which was calculated with the back-interpolated IC50 values and the mutually non-exclusive equation derived by Chou and Talalay (1): […]
The combination effects on the response scale were quantified by Excess Over Highest Single Agent (EOHSA) based on the concept of nonlinear blending as described in detail by Peterson and Novick (2007) and Peterson (2010) [(2;3) [Peterson and Novick, 2007; Peterson, 2010]. […]

[2] = test system: EFM-19; assay: Cell growth inhibition assay (Cell Titer Glo), EFM-19; format: cell-based; details: Homo sapiens, EFM-19, 72 h, EFM-19 breast; KRAS/RAF WT; PIK3CA_H1049L; single agent, 3 days, mean ± std
Source text: as §1
as §2, with “plating.” for “plating. Cells were assayed in a 96-well tissue culture plate (NUNC 136102) of RPMI medium containing 10% FBS for all cells at 1,000 cells per well.”
as §3

[3] = test system: RKO; assay: Cell growth inhibition assay (Cell Titer Glo), RKO; format: cell-based; details: Homo sapiens, 72 h; RKO colon; BRAF_V600E; PIK3CA_H1047R; single agent, 3 days, mean ± std
Source text: as §1
as §2, with “plating.” for “plating. Cells were assayed in a 96-well tissue culture plate (NUNC 136102) of RPMI medium containing 10% FBS for all cells at 1,000 cells per well.”
as §3

[4] = test system: HCT-8; assay: Cell growth inhibition assay (Cell Titer Glo), HCT-8; format: cell-based; details: Homo sapiens, 72 h; HCT-8 colon; KRAS_G13D; PIK3CA_E545K; single agent, 3 days, mean ± std
Source text: as §1
as §2, with “plating.” for “plating. Cells were assayed in a 96-well tissue culture plate (NUNC 136102) of RPMI medium containing 10% FBS for all cells at 1,000 cells per well.”
as §3

[5] = test system: NCI-H508; assay: Cell growth inhibition assay (Cell Titer Glo), NCI-H508; format: cell-based; details: Homo sapiens, 72 h; NCI-H508 colon; BRAF_G596R; PIK3CA_E545K; single agent, 3 days, mean ± std
Source text: as §1
as §2, with “plating.” for “plating. Cells were assayed in a 96-well tissue culture plate (NUNC 136102) of RPMI medium containing 10% FBS for all cells at 1,000 cells per well.”
as §3

[6] = test system: T84; assay: Cell growth inhibition assay (Cell Titer Glo), T84; format: cell-based; details: Homo sapiens, 72 h; T84 colon; KRAS_G13D; PrK3CA_E542K; single agent, 3 days, mean ± std
Source text: as §1
as §2, with “plating.” for “plating. Cells were assayed in a 96-well tissue culture plate (NUNC 136102) of RPMI medium containing 10% FBS for all cells at 1,000 cells per well.”
as §3

[7] = test system: KM12; assay: Cell growth inhibition assay (Cell Titer Glo), KM12; format: cell-based; details: Homo sapiens, 72 h; KM12 colon; KRAS/RAF WT; PTEN_K267*; single agent, 3 days, mean ± std
Source text: as §1
as §2, with “plating.” for “plating. Cells were assayed in a 96-well tissue culture plate (NUNC 136102) of RPMI medium containing 10% FBS for all cells at 1,000 cells per well.”
as §3

[8] = test system: LS-1034; assay: Cell growth inhibition assay (Cell Titer Glo), LS-1034; format: cell-based; details: Homo sapiens, 72 h; LS-1034 colon; KRAS_A146T; PIK3CA/PTEN WT; single agent, 3 days, mean ± std
Source text: as §1
as §2, with “plating.” for “plating. Cells were assayed in a 96-well tissue culture plate (NUNC 136102) of RPMI medium containing 10% FBS for all cells at 1,000 cells per well.”
as §3

[9] = test system: Colo-205; assay: Cell growth inhibition assay (Cell Titer Glo), Colo-205; format: cell-based; details: Homo sapiens, 72 h; Colo-205 colon; BRAF_V600E; PIK3CA/PTEN WT; single agent, 3 days, mean ± std
Source text: as §1
as §2, with “plating.” for “plating. Cells were assayed in a 96-well tissue culture plate (NUNC 136102) of RPMI medium containing 10% FBS for all cells at 1,000 cells per well.”
as §3

[10] = test system: SW1463; assay: Cell growth inhibition assay (Cell Titer Glo), SW1463; format: cell-based; details: Homo sapiens, 72 h; SW1463 colon; KRAS_G12C; PIK3CA/PTEN WT; single agent, 3 days, mean ± std
Source text: as §1
as §2, with “plating.” for “plating. Cells were assayed in a 96-well tissue culture plate (NUNC 136102) of RPMI medium containing 10% FBS for all cells at 1,000 cells per well.”
as §3

[11] = test system: HT-29; assay: Cell growth inhibition assay (Cell Titer Glo), HT-29; format: cell-based; details: Homo sapiens, 72 h; HT-29 colon; BRAF_V600E; PIK3CA_P449T; single agent, 3 days, mean ± std
Source text: as §1
as §2, with “plating.” for “plating. Cells were assayed in a 96-well tissue culture plate (NUNC 136102) of RPMI medium containing 10% FBS for all cells at 1,000 cells per well.”
as §3

[12] = test system: SW480; assay: Cell growth inhibition assay (Cell Titer Glo), SW480; format: cell-based; details: Homo sapiens, 72 h; SW480 colon; PIK3CA/PTEN WT; single agent, 3 days, mean ± std
Source text: as §1
as §2, with “plating.” for “plating. Cells were assayed in a 96-well tissue culture plate (NUNC 136102) of RPMI medium containing 10% FBS for all cells at 1,000 cells per well.”
as §3

[13] = test system: SW1417; assay: Cell growth inhibition assay (Cell Titer Glo), SW1417; format: cell-based; details: Homo sapiens, 72 h; SW1417 colon; BRAF_V600E; PIK3CA/PTEN WT; single agent, 3 days, mean ± std
Source text: as §1
as §2, with “plating.” for “plating. Cells were assayed in a 96-well tissue culture plate (NUNC 136102) of RPMI medium containing 10% FBS for all cells at 1,000 cells per well.”
as §3

[14] = test system: COR-L23; assay: Cell growth inhibition assay (Cell Titer Glo), COR-L23; format: cell-based; details: Homo sapiens, 72 h; COR-L23 lung; KRAS_G12V; PIK3CA/PTEN WT; single agent, 3 days, mean ± std
Source text: as §1
as §2, with “plating.” for “plating. Cells were assayed in a 96-well tissue culture plate (NUNC 136102) of RPMI medium containing 10% FBS for all cells at 1,000 cells per well.”
as §3

In the case of CC(=O)Nc1cccc(-n2c(=O)n(C3CC3)c(=O)c3c(Nc4ccc(I)cc4F)n(C)c(=O)c(C)c32)c1 [Compound A, N-{3-[3-cyclopropyl-5-(2-fluoro-4-iodo-phenylamino)-6,8-dimethyl-2,4,7-trioxo-3,4,6,7-tetrahydro-2H-pyrido[4,3-d]pyrimidin-1-yl]phenyl}acetamide], the IC50 ([1]; Homo sapiens, 72 h, MDA-MB-175-VII breast, KRAS/RAF WT, PIK3CA/PTEN WT, single agent, 3 days, mean ± std) is reported as 96 ± 33 nM, the “sensitivity as a single agent (in words)” value ([1]; MDA-MB-175-VII cells) is reported as “sensitive” and the IC50 [2] is reported as over 1000 nM. For the same compound, the IC50 [3] was 18 ± 1 nM, the IC50 [4] was 55 ± 11 nM and the IC50 [5] was 23 ± 2 nM. For the same compound, the IC50 [6] was 61 ± 31 nM, the IC50 [7] was 23 ± 21 nM and the IC50 [8] was 5 nM. It also gave an IC50 [9] of 1 nM, an IC50 [10] of 4 ± 3 nM and an IC50 [11] of 2 ± 1 nM. For the same compound, the IC50 [12] was 37 ± 15 nM, the IC50 [13] was 3 ± 1 nM and the IC50 [14] was 329 ± 237 nM.
